# From ChEMBL document CHEMBL5441456, “ASAP - SARS-CoV-2 nsp3 macrodomain dose response” (2024)
# Several values for one entry are separate records, joined by “and”; a condition that tells them apart may be missing. Equal values may be shown once.
# Target: T1, Replicase polyprotein 1ab (Severe acute respiratory syndrome coronavirus 2, UniProt P0DTD1)
# Assay: Functional biochemical assay to identify treatments for viral infectious disease that targets SARS-COV-2 nsp3 macrodomain, whereby the mechanism of action inhibits ADP-Ribose hydrolase activity. Utilizing an enzymatic assay to monitor the conversion of alpha-NAD+ to ADP-Ribose and nicotinamide. ADP-ribose was quantified by LC-MS/MS after precipitation of proteins.
row,SMILES,IC50
1,Cn1ncc(-c2cc3c(N[C@@H](c4ccc5c(n4)OCCO5)C(C)(C)C)ncnc3[nH]2)c1C#N,133 nM and 191 nM and 235 nM
2,CC(C)[C@@H](Nc1ncnc2[nH]ccc12)c1ccc2c(c1)NC(=O)CO2,2960 nM
3,CNC(=O)Cn1cc(-c2cc3c(N[C@@H](c4ccc5c(c4)S(=O)(=O)CCC5)C(C)C)ncnc3[nH]2)cn1,204 nM and 197 nM and 288 nM
4,CC(C)[C@@H](Nc1ncnc2[nH]c(-c3cnn(C)c3C#N)cc12)c1ccc2c(n1)OCCO2,283 nM and 156 nM and 312 nM
5,CC(C)[C@H](Nc1ncnc2[nH]c(-c3cnn(C)c3C#N)cc12)c1ccc2c(n1)OCCO2,> 4000 nM
6,CC(C)[C@H](Nc1ncnc2[nH]ccc12)c1ccc2c(c1)S(=O)(=O)CCC2,803 nM and 194 nM and 512 nM
7,CC(C)[C@@H](Nc1ncnc2[nH]c(-c3cnn(C)c3)cc12)c1ccc2c(c1)S(=O)(=O)CCC2,328 nM and 264 nM
8,CC(C)(C)[C@@H](Nc1ncnc2[nH]c(-c3cnn(CC(N)=O)c3)cc12)c1ccc2c(n1)OCCO2,203 nM

# Target: T1, Replicase polyprotein 1ab
# Assay: Functional biochemical assay to identify treatments for viral infectious disease that targets SARS-COV-2 nsp3 macrodomain, whereby the mechanism of action displaces an ADP-Ribose modified peptide from the binding site. Utilizing a time-resolved fluorescence method to measure binding by reading the emitted fluorescence intensity in two wavelengths.
row,SMILES,IC50
1,Cn1ncc(-c2cc3c(N[C@@H](c4ccc5c(n4)OCCO5)C(C)(C)C)ncnc3[nH]2)c1C#N,46 nM and 30 nM (2×) and 20 nM
2,CC(C)[C@@H](Nc1ncnc2[nH]ccc12)c1ccc2c(c1)NC(=O)CO2,700 nM and 722 nM and 396 nM and 378 nM
3,CNC(=O)Cn1cc(-c2cc3c(N[C@@H](c4ccc5c(c4)S(=O)(=O)CCC5)C(C)C)ncnc3[nH]2)cn1,35 nM and 19 nM and 30 nM and 18 nM and 16 nM and 15 nM and 10 nM
4,CC(C)[C@@H](Nc1ncnc2[nH]c(-c3cnn(C)c3C#N)cc12)c1ccc2c(n1)OCCO2,68 nM and 74 nM and 40 nM and 29 nM and 59 nM and 67 nM
5,CC(C)[C@H](Nc1ncnc2[nH]c(-c3cnn(C)c3C#N)cc12)c1ccc2c(n1)OCCO2,19300 nM and 19100 nM and 30800 nM and 19000 nM
6,CC(C)[C@H](Nc1ncnc2[nH]ccc12)c1ccc2c(c1)S(=O)(=O)CCC2,93 nM and 138 nM and 85 nM
7,CC(C)[C@@H](Nc1ncnc2[nH]c(-c3cnn(C)c3)cc12)c1ccc2c(c1)S(=O)(=O)CCC2,36 nM and 54 nM and 19 nM and 34 nM (2×) and 17 nM and 29 nM and 27 nM and 35 nM and 15 nM
8,CC(C)(C)[C@@H](Nc1ncnc2[nH]c(-c3cnn(CC(N)=O)c3)cc12)c1ccc2c(n1)OCCO2,82 nM and 64 nM and 54 nM
9,C[C@@H](C(=O)O)[C@H](NC(=O)c1ncnc2[nH]ccc12)c1ccc(Br)cc1,2850 nM and 982 nM and 1030 nM
10,CCNC(=O)c1cc2c(N[C@H](c3ccc4c(c3)OCCO4)C(C)C)ncnc2[nH]1,46800 nM
11,CC(C)[C@@H](Nc1cc(-n2ccnn2)ncn1)c1ccc2c(c1)S(=O)(=O)CCC2,> 99500 nM
12,CC(C)[C@H](Nc1ncncc1-n1nccn1)c1ccc2c(c1)S(=O)(=O)CCC2,> 99500 nM
13,CC(C)[C@H](Nc1ncnc2ccoc12)c1ccc2c(c1)S(=O)(=O)CCC2,> 99500 nM
14,CC(=O)Nc1ccc(-c2cc3c(N[C@@H](c4ccc5c(c4)S(=O)(=O)CCC5)C(C)C)ncnc3[nH]2)cc1F,203 nM and 120 nM and 206 nM
15,CC(C)[C@H](Nc1nc(N)ncc1Cl)c1ccc2c(c1)S(=O)(=O)CCC2,> 99500 nM
16,CCNC(=O)c1cc2c(N[C@H](c3ccnc(N)c3)C(C)C)ncnc2[nH]1,1790 nM
17,CC(C)[C@@H](Nc1cc(N2CCOCC2)ncn1)c1ccc2c(c1)S(=O)(=O)CCC2,> 99500 nM
18,CCNC(=O)c1cc2c(N[C@H](c3ccc4c(n3)S(=O)(=O)CCO4)C(C)C)ncnc2[nH]1,110 nM
19,CC(C)[C@H](Nc1ncncc1-c1nc[nH]n1)c1ccc2c(c1)S(=O)(=O)CCC2,> 99500 nM
20,CC(C)[C@@H](Nc1ncnc2c1OCCO2)c1ccc2c(c1)S(=O)(=O)CCC2,> 99500 nM
21,CC(C)[C@H](Nc1ncncc1-n1ccnn1)c1ccc2c(c1)S(=O)(=O)CCC2,> 99500 nM
22,CC(C)[C@@H](Oc1ncnc2[nH]ccc12)c1ccc2c(c1)S(=O)(=O)CCC2,6050 nM
23,CC(C)[C@@H](Nc1cc(N)ncn1)c1ccc2c(c1)S(=O)(=O)CCC2,43800 nM
24,CC(C)[C@@H](Nc1ncnc(N2CCCC2)n1)c1ccc2c(c1)S(=O)(=O)CCC2,> 99500 nM
25,CC(C)[C@H](Nc1ncnc2c1CCN2)c1ccc2c(c1)S(=O)(=O)CCC2,52100 nM
26,CCNC(=O)c1cc2c(NC3(c4ccc5c(c4)S(=O)(=O)CCC5)CC3)ncnc2[nH]1,24600 nM

row,SMILES,IC50
1,CC(C)[C@@H](NC(=O)Cc1ncnc2[nH]ccc12)c1ccc2c(c1)S(=O)(=O)CCC2,> 99500 nM
2,CC(C)[C@H](Nc1ncnc2c1NCCO2)c1ccc2c(c1)S(=O)(=O)CCC2,> 99500 nM
3,CC(C)[C@@H](Nc1ncncc1N1CCOCC1)c1ccc2c(c1)S(=O)(=O)CCC2,> 99500 nM
4,CC(C)[C@H](Nc1ncnc(N2CCCC2)n1)c1ccc2c(c1)S(=O)(=O)CCC2,> 99500 nM
5,CC(C)[C@H](Nc1ncnc(O)c1Cl)c1ccc2c(c1)S(=O)(=O)CCC2,> 99500 nM
6,CC(C)[C@@H](Nc1ncnc2[nH]c(Br)cc12)c1ccc2c(c1)S(=O)(=O)CCC2,336 nM
7,CC(C)[C@H](Nc1cc(-c2nc[nH]n2)ncn1)c1ccc2c(c1)S(=O)(=O)CCC2,> 99500 nM
8,CC(C)[C@H](Oc1cc(N)ncn1)c1ccc2c(c1)S(=O)(=O)CCC2,59800 nM
9,CCNC(=O)c1cc2c(N[C@H](c3cnc(C(=O)N(C)C)nc3)C(C)C)ncnc2[nH]1,47500 nM
10,CC(C)[C@H](Nc1ncncc1-n1cncn1)c1ccc2c(c1)S(=O)(=O)CCC2,> 99500 nM
11,CC(C)[C@H](Nc1ncnc2[nH]c(-c3cnn(CC(=O)N(C)C)c3)cc12)c1ccc2c(c1)OCCO2,235 nM and 395 nM
12,CNCc1cc(-c2cc3c(N[C@H](c4ccc5c(c4)S(=O)(=O)CCO5)C(C)C)ncnc3[nH]2)co1,57 nM
13,CC(C)[C@H](Nc1ncnc(-n2cccn2)n1)c1ccc2c(c1)S(=O)(=O)CCC2,> 99500 nM
14,CC(C)[C@@H](Nc1ncnc2[nH]c(-c3cnc4n3CCC4)cc12)c1ccc2c(c1)S(=O)(=O)CCC2,51 nM and 43 nM and 65 nM and 46 nM and 52 nM
15,CC(C)[C@H](Nc1ncnc2c1CNCC2)c1ccc2c(c1)S(=O)(=O)CCC2,> 99500 nM
16,CC(C)[C@H](Nc1ncnc2c1OCCO2)c1ccc2c(c1)S(=O)(=O)CCC2,38400 nM
17,COc1ncnc(N[C@H](c2ccc3c(c2)S(=O)(=O)CCC3)C(C)C)c1F,> 99500 nM
18,CC(C)[C@H](Nc1cc(N2CCNCC2)ncn1)c1ccc2c(c1)S(=O)(=O)CCC2,> 99500 nM
19,CC(C)[C@H](Nc1ncnc2cn[nH]c12)c1ccc2c(c1)S(=O)(=O)CCC2,> 99500 nM
20,CC(C)[C@@H](Nc1ncnc2c1CCO2)c1ccc2c(c1)S(=O)(=O)CCC2,62900 nM
21,CC(C)[C@H](Nc1cc(NCC(F)(F)F)ncn1)c1ccc2c(c1)S(=O)(=O)CCC2,> 99500 nM
22,CCNC(=O)c1cc2c(N[C@H](c3ccc4c(c3)NS(=O)(=O)CO4)C(C)C)ncnc2[nH]1,29 nM and 38 nM and 37 nM
23,CC(=O)N1[C@@H]2CC[C@H]1c1c(ncnc1N[C@@H](c1ccc3c(c1)S(=O)(=O)CCC3)C(C)C)C2,> 99500 nM
24,CC(C)[C@H](Nc1cc(O)ncn1)c1ccc2c(c1)S(=O)(=O)CCC2,> 99500 nM
25,CC(C)[C@H](Nc1cc(-n2ccnn2)ncn1)c1ccc2c(c1)S(=O)(=O)CCC2,> 99500 nM
26,Cc1nc(N)c(Cl)c(N[C@H](c2ccc3c(c2)S(=O)(=O)CCC3)C(C)C)n1,> 99500 nM

row,SMILES,IC50
1,CC(C)[C@@H](Nc1ncncc1Cl)c1ccc2c(c1)S(=O)(=O)CCC2,> 99500 nM
2,CC(C)[C@H](Nc1cc(-n2cncn2)ncn1)c1ccc2c(c1)S(=O)(=O)CCC2,> 99500 nM
3,CC(C)[C@H](Nc1ncnc(N)c1F)c1ccc2c(c1)S(=O)(=O)CCC2,> 99500 nM
4,CNc1ncnc(N[C@H](c2ccc3c(c2)S(=O)(=O)CCC3)C(C)C)c1Cl,> 99500 nM
5,CCNC(=O)c1cc2c(N[C@H](c3ccc4c(n3)S(=O)(=O)CCC4)C(C)C)ncnc2[nH]1,119 nM
6,CC(C)[C@@H](Oc1cc(N)ncn1)c1ccc2c(c1)S(=O)(=O)CCC2,67400 nM
7,CC(C)[C@@H](Nc1ncnc2[nH]c(-c3cnn(C)c3)cc12)c1ccc2c(c1)S(=O)(=O)CCO2,43 nM and 51 nM
8,CC(C)[C@H](NC(=O)c1ncnc2[nH]ccc12)c1ccc2c(c1)S(=O)(=O)CCC2,> 99500 nM
9,CC(C)[C@H](Nc1ncnc2[nH]nnc12)c1ccc2c(c1)S(=O)(=O)CCC2,> 99500 nM
10,CC(C)[C@@H](Nc1cc(-n2nccn2)ncn1)c1ccc2c(c1)S(=O)(=O)CCC2,> 99500 nM
11,CC(C)[C@@H](Nc1cc(N2CCC[C@H]2C(=O)O)ncn1)c1ccc2c(c1)S(=O)(=O)CCC2,> 99500 nM
12,CC(C)[C@H](Nc1cc(-n2nccn2)ncn1)c1ccc2c(c1)S(=O)(=O)CCC2,> 99500 nM
13,CC(C)[C@H](Nc1ncnc2c1CCO2)c1ccc2c(c1)S(=O)(=O)CCC2,> 99500 nM
14,CC(C)[C@@H](Nc1ncnc2c1CNCC2)c1ccc2c(c1)S(=O)(=O)CCC2,> 99500 nM
15,CC(C)[C@@H](Nc1cc(NCC(F)(F)F)ncn1)c1ccc2c(c1)S(=O)(=O)CCC2,2240 nM
16,CC(C)[C@@H](NC(=O)c1ncnc2[nH]ccc12)c1ccc2c(c1)S(=O)(=O)CCC2,> 99500 nM
17,CC(C)[C@@H](Oc1ncnc2[nH]ccc12)c1ccc2c(c1)OCCO2,> 99500 nM
18,COc1ccc([C@H](CC(=O)O)NC(=O)c2ncnc3[nH]ccc23)cc1,1440 nM
19,CC(C)[C@@H](Nc1cc(N2CCNCC2)ncn1)c1ccc2c(c1)S(=O)(=O)CCC2,> 99500 nM
20,CC(C)[C@@H](Nc1ccncn1)c1ccc2c(c1)S(=O)(=O)CCC2,> 99500 nM
21,CC(C)[C@H](Nc1cc(N2CCOCC2)ncn1)c1ccc2c(c1)S(=O)(=O)CCC2,> 99500 nM
22,CC(C)[C@H](Nc1ncncc1N1CCNCC1)c1ccc2c(c1)S(=O)(=O)CCC2,> 99500 nM
23,CC(C)[C@H](Nc1nccc2[nH]ccc12)c1ccc2c(c1)S(=O)(=O)CCC2,> 99500 nM
24,CC(C)[C@H](Nc1ncnc2nccnc12)c1ccc2c(c1)S(=O)(=O)CCC2,> 99500 nM
25,CC(C)[C@H](Nc1ncncc1Cl)c1ccc2c(c1)S(=O)(=O)CCC2,> 99500 nM
